Assay results published in ChEMBL document CHEMBL3271995, “Antineoplastic agents. 2. Structure-activity studies on N-protected vinyl, 1,2-dibromoethyl, and cyanomethyl esters of several amino acids” (J Med Chem, 1977).
Calls of active or inactive are those of the source. No cut-off for these calls is given here.

How the values were obtained:
Ehrlich [1] = assay: Antineoplastic activity against mouse EAC allografted in CF1 mouse assessed as animal survival on day 7 measured at 33 mg/kg; type: functional, organism-based; set-up: dose 33 mg/kg
Ehrlich [2] = assay: Antineoplastic activity against mouse EAC allografted in CF1 mouse assessed as packed cell volume on day 7 measured at 33 mg/kg (reference value: 32.75 +/- 7.87%); type: functional
Ehrlich [3] = assay: Antineoplastic activity against mouse EAC allografted in CF1 mouse assessed as ascites volume on day 7 measured at 33 mg/kg (reference value: 4.1 +/- 1.24 mL); type: functional
Ehrlich [4] = assay: Antineoplastic activity against mouse EAC allografted in CF1 mouse assessed as tumor growth inhibition on day 7 measured at 33 mg/kg; type: functional; conditions: 168 h, read-out: TGI
[5] = Acute toxicity in CF1 mouse; type: organism-based; conditions: in vivo
W256 [6] = assay: Antitumor activity against rat Walker 256 cells allografted in Sprague-Dawley rat assessed as animal survival days at 2.5 mg/kg/day, ip; type: functional; conditions: route intraperitoneal
W256 [7] = assay: Antitumor activity against rat Walker 256 cells allografted in Sprague-Dawley rat assessed as survival time (treated/control) at 2.5 mg/kg/day, ip; type: functional; conditions: route intraperitoneal
P388 [8] = assay: Antitumor activity against mouse P388 cells allografted in DBA/2 mouse assessed as animal survival days at 20 mg/kg/day, ip; type: functional; conditions: route intraperitoneal
P388 [9] = assay: Antitumor activity against mouse P388 cells allografted in DBA/2 mouse assessed as median survival time of treated versus control mice (T/C) at 20 mg/kg/day, ip; type: functional; conditions: route intraperitoneal

O=C(OC(Br)CBr)[C@@H]1CCCN1C(=O)OCc1ccccc1 (stereo partly specified)
Activity (Ehrlich [1]): Active
Activity (Ehrlich [2]): 10%
Activity (Ehrlich [3]): 2.1 mL
inhibition in vivo at 33 mg/kg (Ehrlich [4]): 84%
LD50 [5]: 190 µmol/kg

C=COC(=O)[C@H](Cc1ccccc1)NC(=O)c1ccccc1
Activity (Ehrlich [1]): Active
Activity (Ehrlich [2]): 9.8%
Activity (Ehrlich [3]): 2.1 mL
inhibition in vivo at 33 mg/kg (Ehrlich [4]): 56.8%

C=COC(=O)[C@H](Cc1ccc(O)cc1)NC(=O)OCc1ccccc1
Activity (Ehrlich [1]): Active
Activity (Ehrlich [2]): 29.7%
Activity (Ehrlich [3]): 3.9 mL
inhibition in vivo at 33 mg/kg (Ehrlich [4]): 16%

C=COC(=O)[C@@H]1CCCN1C(=O)OCc1ccccc1
Activity (Ehrlich [2]): 35%
Activity (Ehrlich [3]): 1 mL
inhibition in vivo at 33 mg/kg (Ehrlich [4]): 73%
LD50 [5]: 1820 µmol/kg

O=C(O)CNC(=O)OCc1ccccc1
Activity (Ehrlich [2]): 22%
Activity (Ehrlich [3]): 0.2 mL
inhibition in vivo at 33 mg/kg (Ehrlich [4]): 97%

CC=O
Activity (Ehrlich [2]): 56%
Activity (Ehrlich [3]): 2 mL
inhibition in vivo at 33 mg/kg (Ehrlich [4]): 43%

N[C@@H](Cc1ccc(N(CCCl)CCCl)cc1)C(=O)O
Survival (W256 [6]): 23 days
Activity (Ehrlich [1]): Active
Activity (Ehrlich [2]): 3%
Activity (Ehrlich [3]): 0.1 mL
inhibition in vivo at 33 mg/kg (Ehrlich [4]): 99%
T/C (W256 [7]): 305%

C=COC(=O)[C@H](Cc1ccccc1)NC(=O)OCc1ccccc1
Activity (Ehrlich [1]): Active
Activity (Ehrlich [2]): 0.4%
Activity (Ehrlich [3]): 0.1 mL
inhibition in vivo at 33 mg/kg (Ehrlich [4]): 99.9%
LD50 [5]: > 6150 µmol/kg

C=COC(=O)CNC(=O)OCc1ccccc1
Activity (Ehrlich [1]): Active
Activity (Ehrlich [2]): 34%
Activity (Ehrlich [3]): 1.5 mL
inhibition in vivo at 33 mg/kg (Ehrlich [4]): 63%
LD50 [5]: 2130 µmol/kg

O=c1[nH]cc(F)c(=O)[nH]1 [FLUOROURACIL]
Survival (P388 [8]): 11 days
T/C (P388 [9]): 136%

C=COC(=O)[C@H](Cc1ccccc1)NS(=O)(=O)c1ccc(C)cc1
Activity (Ehrlich [2]): 19.2%
Activity (Ehrlich [3]): 3.8 mL
inhibition in vivo at 33 mg/kg (Ehrlich [4]): 56.8%

Sc1ncnc2nc[nH]c12 [MERCAPTOPURINE ANHYDROUS]
Activity (Ehrlich [1]): Active
Activity (Ehrlich [2]): 0.3%
Activity (Ehrlich [3]): 0.7 mL
inhibition in vivo at 33 mg/kg (Ehrlich [4]): 99.6%
Survival (P388 [8]): 12 days
T/C (P388 [9]): 148%

Cc1ccc(S(=O)(=O)N[C@@H](Cc2ccccc2)C(=O)CCl)cc1 [TPCK]
Activity (Ehrlich [2]): 0.05%
Activity (Ehrlich [3]): 0.01 mL
inhibition in vivo at 33 mg/kg (Ehrlich [4]): 100%

O=C(CCCCCNC(=O)OCc1ccccc1)OC(Br)CBr (stereo unspecified)
Activity (Ehrlich [2]): 30%
Activity (Ehrlich [3]): 1.7 mL
inhibition in vivo at 33 mg/kg (Ehrlich [4]): 50%

CC(C)C[C@H](NC(=O)OCc1ccccc1)C(=O)OCC#N
Activity (Ehrlich [1]): Active
Activity (Ehrlich [2]): 38%
Activity (Ehrlich [3]): 2.7 mL
inhibition in vivo at 33 mg/kg (Ehrlich [4]): 27%

CC(C)C[C@H](NC(=O)OCc1ccccc1)C(=O)OC(Br)CBr (stereo partly specified)
Survival (W256 [6]): 8.5 days
Activity (Ehrlich [1]): Active
Activity (Ehrlich [2]): 14%
Activity (Ehrlich [3]): 0.002 mL
inhibition in vivo at 33 mg/kg (Ehrlich [4]): 99%
LD50 [5]: 500 µmol/kg
T/C (W256 [7]): 113%
Survival (P388 [8]): 9.1 days
T/C (P388 [9]): 112%

O=C(O)CCCNC(=O)OCc1ccccc1
Activity (Ehrlich [1]): Active
Activity (Ehrlich [2]): 32.3%
Activity (Ehrlich [3]): 0.8 mL
inhibition in vivo at 33 mg/kg (Ehrlich [4]): 71%

Cc1ccc(S(=O)(=O)N[C@@H](Cc2ccccc2)C(=O)OCC#N)cc1
Activity (Ehrlich [2]): 3.4%
Activity (Ehrlich [3]): 0.4 mL
inhibition in vivo at 33 mg/kg (Ehrlich [4]): 97%

O=C(CNC(=O)OCc1ccccc1)OC(Br)CBr (stereo unspecified)
Survival (W256 [6]): 10.1 days
Activity (Ehrlich [1]): Active
Activity (Ehrlich [2]): 0%
Activity (Ehrlich [3]): 0 mL
inhibition in vivo at 33 mg/kg (Ehrlich [4]): 100%
LD50 [5]: 370 µmol/kg
T/C (W256 [7]): 135%
Survival (P388 [8]): 2.2 days
T/C (P388 [9]): 28%

Cc1ccc(S(=O)(=O)N[C@@H](Cc2ccc(O)cc2)C(=O)OCC#N)cc1
Activity (Ehrlich [2]): 15.8%
Activity (Ehrlich [3]): 3.8 mL
inhibition in vivo at 33 mg/kg (Ehrlich [4]): 56%
LD50 [5]: 220 µmol/kg

C#CCOC(=O)[C@H](CC(C)C)NC(=O)OCc1ccccc1
Activity (Ehrlich [1]): Active
Activity (Ehrlich [2]): 23%
Activity (Ehrlich [3]): 0.5 mL
inhibition in vivo at 33 mg/kg (Ehrlich [4]): 85%
LD50 [5]: 1650 µmol/kg
Survival (P388 [8]): 9.1 days
T/C (P388 [9]): 112%

Cc1ccc(S(=O)(=O)N[C@@H](Cc2ccc(OS(=O)(=O)c3ccc(C)cc3)cc2)C(=O)OCC#N)cc1
Activity (Ehrlich [1]): Active
Activity (Ehrlich [2]): 6.5%
Activity (Ehrlich [3]): 0.8 mL
inhibition in vivo at 33 mg/kg (Ehrlich [4]): 53%

C=COC(=O)[C@H](Cc1ccc(O)cc1)NS(=O)(=O)c1ccc(C)cc1
Activity (Ehrlich [1]): Active
Activity (Ehrlich [2]): 17.5%
Activity (Ehrlich [3]): 1.9 mL
inhibition in vivo at 33 mg/kg (Ehrlich [4]): 75%

C=COC(=O)CCCCCNC(=O)OCc1ccccc1
Activity (Ehrlich [1]): Active
Activity (Ehrlich [2]): 36%
Activity (Ehrlich [3]): 0.6 mL
inhibition in vivo at 33 mg/kg (Ehrlich [4]): 75%

N#CCOC(=O)CCCNC(=O)OCc1ccccc1
Activity (Ehrlich [2]): 48.8%
Activity (Ehrlich [3]): 0.6 mL
inhibition in vivo at 33 mg/kg (Ehrlich [4]): 71%

N#CCOC(=O)[C@H](Cc1ccccc1)NC(=O)c1ccccc1
Activity (Ehrlich [2]): 13.2%
Activity (Ehrlich [3]): 1.8 mL
inhibition in vivo at 33 mg/kg (Ehrlich [4]): 47%

N#CCOC(=O)CNC(=O)OCc1ccccc1
Activity (Ehrlich [1]): Active
Activity (Ehrlich [2]): 44.7%
Activity (Ehrlich [3]): 2.2 mL
inhibition in vivo at 33 mg/kg (Ehrlich [4]): 29%

O=C(O)CCCCCNC(=O)OCc1ccccc1
Activity (Ehrlich [1]): Active
Activity (Ehrlich [2]): 33%
Activity (Ehrlich [3]): 1 mL
inhibition in vivo at 33 mg/kg (Ehrlich [4]): 63%

N#CCOC(=O)CC[C@H](NC(=O)OCc1ccccc1)C(=O)OCC#N
Activity (Ehrlich [1]): Active
Activity (Ehrlich [2]): 32%
Activity (Ehrlich [3]): 3.2 mL
inhibition in vivo at 33 mg/kg (Ehrlich [4]): 35%

O=C(N[C@@H](Cc1ccccc1)C(=O)OC(Br)CBr)OCc1ccccc1 (stereo partly specified)
Activity (Ehrlich [1]): Active
Activity (Ehrlich [2]): 1.4%
Activity (Ehrlich [3]): 0 mL
inhibition in vivo at 33 mg/kg (Ehrlich [4]): 100%

O=Cc1ccccc1 [BENZALDEHYDE]
Activity (Ehrlich [1]): Active
Activity (Ehrlich [2]): 49%
Activity (Ehrlich [3]): 0.8 mL
inhibition in vivo at 33 mg/kg (Ehrlich [4]): 69%

O=C(O)[C@@H]1CCCN1C(=O)OCc1ccccc1
Activity (Ehrlich [1]): Active
Activity (Ehrlich [2]): 32%
Activity (Ehrlich [3]): 1.9 mL
inhibition in vivo at 33 mg/kg (Ehrlich [4]): 53%

C#CCOC(=O)C[C@H](NC(=O)OCc1ccccc1)C(=O)OCC#C
Activity (Ehrlich [1]): Active
Activity (Ehrlich [2]): 21%
Activity (Ehrlich [3]): 3.7 mL
inhibition in vivo at 33 mg/kg (Ehrlich [4]): 31%

O=C(CCCNC(=O)OCc1ccccc1)OC(Br)CBr (stereo unspecified)
Survival (W256 [6]): 18.1 days
Activity (Ehrlich [2]): 2%
Activity (Ehrlich [3]): 0.6 mL
inhibition in vivo at 33 mg/kg (Ehrlich [4]): 98.7%
T/C (W256 [7]): 226%
Survival (P388 [8]): 8.1 days
T/C (P388 [9]): 100%

C#CCOC(=O)CNC(=O)OCc1ccccc1
Activity (Ehrlich [1]): Active
Activity (Ehrlich [2]): 27%
Activity (Ehrlich [3]): 5.2 mL
inhibition in vivo at 33 mg/kg (Ehrlich [4]): 0%

N#CCOC(=O)C[C@H](NC(=O)OCc1ccccc1)C(=O)OCC#N
Activity (Ehrlich [2]): 33%
Activity (Ehrlich [3]): 4.7 mL
inhibition in vivo at 33 mg/kg (Ehrlich [4]): 7%

N#CCOC(=O)[C@H](CCC(N)=O)NC(=O)OCc1ccccc1
Activity (Ehrlich [2]): 40%
Activity (Ehrlich [3]): 2 mL
inhibition in vivo at 33 mg/kg (Ehrlich [4]): 51%

C#CCOC(=O)CCCNC(=O)OCc1ccccc1
Survival (W256 [6]): 23 days
Activity (Ehrlich [1]): Active
Activity (Ehrlich [2]): 34.5%
Activity (Ehrlich [3]): 2.3 mL
inhibition in vivo at 33 mg/kg (Ehrlich [4]): 20%
T/C (W256 [7]): 305%
Survival (P388 [8]): 6.7 days
T/C (P388 [9]): 83%

N#CCOC(=O)CCCCCNC(=O)OCc1ccccc1
Activity (Ehrlich [1]): Active
Activity (Ehrlich [2]): 41%
Activity (Ehrlich [3]): 1 mL
inhibition in vivo at 33 mg/kg (Ehrlich [4]): 54%

N#CCOC(=O)[C@H](Cc1c[nH]c2ccccc12)NC(=O)OCc1ccccc1
Activity (Ehrlich [1]): Active
Activity (Ehrlich [2]): 19.7%
Activity (Ehrlich [3]): 4.3 mL
inhibition in vivo at 33 mg/kg (Ehrlich [4]): 38%

N#CCOC(=O)[C@H](Cc1ccc(O)cc1)NC(=O)OCc1ccccc1
Activity (Ehrlich [1]): Active
Activity (Ehrlich [2]): 31.1%
Activity (Ehrlich [3]): 4.5 mL
inhibition in vivo at 33 mg/kg (Ehrlich [4]): 0%

C=COC(=O)CCCNC(=O)OCc1ccccc1
Activity (Ehrlich [1]): Active
Activity (Ehrlich [2]): 39.5%
Activity (Ehrlich [3]): 3.2 mL
inhibition in vivo at 33 mg/kg (Ehrlich [4]): 6%

O=C(O)CC[C@H](NC(=O)OCc1ccccc1)C(=O)O
Activity (Ehrlich [1]): Active
Activity (Ehrlich [2]): 28%
Activity (Ehrlich [3]): 0.7 mL
inhibition in vivo at 33 mg/kg (Ehrlich [4]): 81%
LD50 [5]: 1780 µmol/kg

O=C(O)C[C@H](NC(=O)OCc1ccccc1)C(=O)O
Activity (Ehrlich [1]): Active
Activity (Ehrlich [2]): 21%
Activity (Ehrlich [3]): 3.7 mL
inhibition in vivo at 33 mg/kg (Ehrlich [4]): 31%

C=COC(=O)CC[C@H](NC(=O)OCc1ccccc1)C(=O)OC=C
Activity (Ehrlich [1]): Active
Activity (Ehrlich [2]): 37%
Activity (Ehrlich [3]): 0.9 mL
inhibition in vivo at 33 mg/kg (Ehrlich [4]): 69%
LD50 [5]: 1500 µmol/kg

C=COC(=O)[C@H](Cc1c[nH]c2ccccc12)NC(=O)OCc1ccccc1
Survival (W256 [6]): 8 days
Activity (Ehrlich [1]): Active
Activity (Ehrlich [2]): 14.3%
Activity (Ehrlich [3]): 1.3 mL
inhibition in vivo at 33 mg/kg (Ehrlich [4]): 87%
T/C (W256 [7]): 106%

C=COC(=O)[C@H](CC(C)C)NC(=O)OCc1ccccc1
Activity (Ehrlich [1]): Active
Activity (Ehrlich [2]): 38%
Activity (Ehrlich [3]): 0.9 mL
inhibition in vivo at 33 mg/kg (Ehrlich [4]): 48%

N#CCOC(=O)[C@H](Cc1ccccc1)NC(=O)OCc1ccccc1
Activity (Ehrlich [1]): Active
Activity (Ehrlich [2]): 0.1%
Activity (Ehrlich [3]): 0.2 mL
inhibition in vivo at 33 mg/kg (Ehrlich [4]): 99.9%
